From patent US10308649B2, “Compounds and methods to suppress autoimmune response” (Oregon State University, priority 2014, dated 2019) come the findings set out here.

Format in all cases: in vivo, mouse
Data set [1] is described as follows: Clinical chemistry profile from toxicology screen of NOD mice. Particulars: 20 weeks of age. The source says:
The results listed in Table 1 illustrate an absence of clinical signs of toxicity after prolonged treatment with AHRL1. Table 1 lists the results of a clinical chemistry profile from a toxicology screen of the AHRL1 treated, TCDD treated, and vehicle treated mice. The clinical chemistry panel includes tests for substances in the blood that have biological functions, metabolites or waste products, and substances that indicate cell damage or disease. The concentrations of the substances listed in Table 1 were measured at 20 weeks of age. The concentrations are reported as milligrams per deciliter (mg/dl), grams per deciliter (g/dl), units per liter (U/L), or milli equivalents per liter (mEq/L).
FIGS. 18a-18r show the clinical chemistry profile from a toxicology screen for three groups: AHRL1 treated mice, vehicle treated mice, and untreated mice. For the test group, the mice were treated with AHRL1. The vehicle given was the carrier for the AHRL1 compound. The carrier included 30% DMSO, 20% Cremaphor, and 50% Peceol. The mice were tested after 12 weeks of exposure. The clinical chemistry panel includes tests for substances in the blood that have biological functions, metabolites or waste products, and substances that indicate cell damage or disease.

The subject of another data set is NOD.Foxp3DTR mice. Description: Islet infiltration in Foxp3 depleted (DT treated) NOD.Foxp3DTR mice. As to conditions: day 9, AHRL1 60 mg/kg oral days -1, 1, 3, 5, 7, TCDD day -1. The source says:
FIGS. 6a-6e illustrate the therapeutic effects of treatment with an AhR ligand on a Foxp3 deficient subject using a NOD.Foxp3− mouse model. […]. NOD.Foxp3^DTR mice were obtained from the Juvenile Diabetes Research Foundation Center (JDRF) for Immune Tolerance in Diabetes at Harvard (CITDH). Mice were bred and maintained under specific pathogen-free conditions at Oregon State University facilities. All experimental procedures using animals were approved by the Institutional Animal Care and Use Committee at Oregon State University.
FIG. 6a illustrates details of the mouse model used to analyze the therapeutic effects and mechanisms by which AhR activation alters T cell differentiation. […] Arrows 152 illustrate the NOD.Foxp3^DTR mice were orally dosed with 60 mg/kg AHRL1 on days −1, 1, 3, 5, and 7 relative to DT treatment on day 0. The carrier for AHRL1 was a 30% DMSO, 20% CREMAPHOR, 50% PECEOL solution. Data was also collected from NOD.Foxp3^DTR mice treated with TCDD on day −1 relative to DT treatment on day 0. […]
The pancreases from the sacrificed mice were excised, sectioned, and stained with hematoxylin and eosin for analysis of islet infiltration by inflammatory CTL cells. Islet infiltration was scored on sequential hematoxylin and eosin stained pancreas sections separated by 200 μm. Islets were scored as no infiltration, less than 50% infiltration, or greater than 50% infiltration. […]

The test system of a further data set is donor CD4+ T cells. Description: Acute graft versus host model: Treg phenotype of alloactivated donor CD4+ T cells. As to conditions: B6D2F1 hosts, day 2. How it is done:
FIGS. 14a-14i show AHRL1 induces an AhR-dependent Treg phenotype by a mechanism that is mediated by the AhR in donor CD4+ T cells. The AhR-induced Tregs were identified as the CD4+CD25+CTLA-4+CD62L^low population of T cells. To determine if AHRL1 induced changes in donor CD4+ T cells, AHRL1 was compared with TCDD and the vehicle. On day 0, B6D2F1 host mice in groups of 5 were injected with CFSE-labeled C57BL/6 (H-2^b/b) T cells and given 15 mg/kg of AHRL1, 15 μg/kg of TCDD, or vehicle by i.p. injection. At 24 hours, an additional dose of 7 mg/kg of AHRL1 or vehicle was given. Mice that were treated with TCDD at the time of donor cell transfer were used as positive controls. Splenocytes were isolated on day 2 for phenotypic analysis of the alloresponsive (CFSE-diluted) donor CD4+ T cells. Splenocytes were harvested from the host mice and the CD4+ T cells were identified by flow cytometry.
On day 0, B6D2F1 host mice in groups of 5 were injected with donor T cells obtained from AhR^+/+ or AhR-deficient (AhR^−/−) C57BL/6 mice. Host mice were treated with 2 mg/kg of AHRL1 or vehicle immediately following donor cell transfer and again at 24 hours. […] Thus, the AhR in the CD4+ T cell is the primary target driving the AhR-Treg phenotype.
On day 0, B6D2F1 host mice in groups of 3-5 were injected with C57BL/6 T cells. Mice were immediately treated with 0 mg/kg, 0.4 mg/kg, 2 mg/kg, or 10 mg/kg of AHRL1 and again on day 1. On day 2, expression of markers associated with the AhR-Treg phenotype increased as the dose of AHRL1 increased. Further, dosing generally correlated with degree of activation of AhR as reflected by CYP1A1, CYP1B1, and AHRR expression in lymph nodes from the same mice. The asterisk (*) indicates a p-value of 0.05 relative to vehicle treatment.
FIGS. 16c and 16d show expression of phenotypic markers, CD25+ICOS+CD62L^low and CD25+CTLA-4+, associated with AhR-Tregs in mice treated with AHRL1. Host mice were treated with 10 mg/kg of AHRL1, 11-Cl-BBQ analog, or vehicle on day 0 and day 1 following donor cell transfer. On day 2, the alloactivated CD4+ donor T cells were identified based on CFSE dilution. The percentage of donor cells in each group expressing the Treg markers were derived from flow histograms. The data represents mean±SEM of 5 mice per treatment. […] Analog 1 is statistically different from AHRL1 and analog 4 (p-value=0.05). […], analog 1, and analog 4 are shown to be AhR ligands that are capable of inducing Tregs in vivo. Accordingly, analogs 1 and 4 are expected to have a similar therapeutic effect in a subject as AHRL1 by suppressing an autoimmune response. Additionally, analog 6, analog 7, and other analogs of 11-Cl-BBQ, that are found to be active AhR ligands using the disclosed screening method, are expected to induce Tregs and suppress CTL to provide treatment and/or prevention of immune-mediated diseases.

In the case of `Clc1cc2c(cc1Cl)Oc1cc(Cl)c(Cl)cc1O2` [TCDD, 2,3,7,8-tetrachlorodibenzo-p-dioxin], in data set [1], the “Alanine Aminotransferase (ALT)” value amounted to 24.0 ± 2.5 U/L, the Albumin was found to be 3.4 ± 0.1 g/dL, the “Alkaline Phosphatase” value amounted to 80.0 ± 14.7 U/L and the “Anion Gap” value turned out to be 34.0 ± 1.2 mEq/L. Further, in data set [1], the “Bicarbonate (tCO2)” value is recorded as 18.6 ± 1.4 mEq/L; the “Bilirubin, Total” value stood at 0.43 ± 0.64 mg/dL; the “Blood Urine Nitrogen (BUN)” value was determined as 20.0 ± 2.7 mg/dL; the Calcium was determined as 10.8 ± 0.4 mg/dL. For the same compound, in data set [1], the Chloride is 109.5 ± 1.7 mEq/L, the Cholesterol stood at 91.9 ± 5.1 mg/dL, the Creatinine was 0.3 ± 0.1 mg/dL and the “Creatinine Kinase (CK)” value is reported as 398.3 ± 248.7 U/L. Further, in data set [1], the “Gamma-glutamyl transferase (GGT)” value is 0.0 ± 0.0 U/L, the Phosphorous came out at 8.2 ± 1.2 mg/dL, the Potassium was determined as 9.7 ± 0.4 mEq/L and the Sodium amounted to 151.9 ± 2.4 mEq/L. Also, in data set [1], the “Total Protein” value was 5.6 ± 0.2 g/dL. The “islets showing no infiltration” value with NOD.Foxp3DTR mice is “greater percentage of islets being free from infiltration”. The “total number of alloactivated CD4+CD25+ T cells co-expressing CTLA-4+, ICOS, low CD62L” value in the data set with donor CD4+ T cells is given as “increased”. Also, the “expression of ICOS on alloactivated donor CD4+ T cells” value with donor CD4+ T cells (AHRL1 15 mg/kg then 7 mg/kg, TCDD 15 μg/kg i.p.) was “significantly increased”.
